In ChEMBL document CHEMBL5126551, “Spiral molecules with antimalarial activities: A review” (Eur J Med Chem, 2022):
≈ marks a conversion by molar mass, not a printed value.

Key:
Plasmodium falciparum [1] = experiment: Antimalarial activity against chloroquine and quinine sensitive Plasmodium falciparum assessed as inhibition of parasite growth; assay type: functional, organism-based
[2] = Metabolic stability in Sprague-Dawley rat assessed as Tmax of 97-63 metabolite by LC-MS/MS analysis; assay type: ADME
[3] = Metabolic stability in Sprague-Dawley rat assessed as AUC(0 to t) of 97-63 metabolite by LC-MS/MS analysis; assay type: ADME
[4] = Apparent oral volume of distribution in Sprague-Dawley rat by LC-MS/MS analysis; assay type: ADME; settings: in vivo
[5] = Metabolic stability in Sprague-Dawley rat assessed as Cmax of 97-63 metabolite by LC-MS/MS analysis; assay type: ADME
[6] = Metabolic stability in Sprague-Dawley rat assessed as half-life of 97-63 metabolite by LC-MS/MS analysis; assay type: ADME
[7] = Metabolic stability in Sprague-Dawley rat assessed as AUC(0 to infinity) of 97-63 metabolite by LC-MS/MS analysis; assay type: ADME; set-up: time infinity
Plasmodium falciparum [8] = experiment: Antimalarial activity against Plasmodium falciparum 3D7 infected in human plasma assessed as inhibition of parasite growth by Giema staining based assay; assay type: functional, organism-based; settings: 3D7, Plasma
Plasmodium falciparum [9] = experiment: Antimalarial activity against chloroquine and antifolate resistant Plasmodium falciparum K1 infected in human erythrocyte preincubated for 24 hrs followed by hypoxanthine addition and measured after 18 to 20 hrs by [3H]-hypoxanthine incorporation assay; assay type: functional, organism-based
Plasmodium falciparum [10] = experiment: Antimalarial activity against chloroquine sensitive Plasmodium falciparum NF54 assessed as inhibition of parasite growth by [3H]-hypoxanthine incorporation assay; assay type: functional, organism-based
Plasmodium falciparum [11] = experiment: Antimalarial activity against chloroquine resistant Plasmodium falciparum K1 assessed as inhibition of parasite growth by [3H]-hypoxanthine incorporation assay; assay type: functional, organism-based
[12] = Cytotoxicity against human MRC5 cells assessed as inhibition of cell growth incubated for 7 days by MTT assay; assay type: toxicity, cell-based
Plasmodium falciparum [13] = experiment: Antimalarial activity against chloroquine-resistant Plasmodium falciparum K1 infected in human erythrocytes incubated for 72 hrs by parasite lactate dehydrogenase assay; assay type: functional, organism-based; settings: K1, Erythrocyte
Plasmodium falciparum [14] = experiment: Antimalarial activity against Plasmodium falciparum 1 assessed as inhibition of parasite growth; assay type: functional, organism-based
Plasmodium falciparum [15] = experiment: Antimalarial activity against Plasmodium falciparum D6 assessed as inhibition of parasite growth; assay type: functional, organism-based
Plasmodium falciparum [16] = experiment: Antimalarial activity against Plasmodium falciparum TM90C2B assessed as inhibition of parasite growth; assay type: functional, organism-based
Plasmodium falciparum [17] = experiment: Antimalarial activity against Plasmodium falciparum HB3 assessed as inhibition of parasite growth; assay type: functional, organism-based
Plasmodium falciparum [18] = experiment: Antimalarial activity against Plasmodium falciparum Dd2 assessed as inhibition of parasite growth; assay type: functional, organism-based
Plasmodium falciparum [19] = experiment: Antimalarial activity against Plasmodium falciparum FCB assessed as inhibition of parasite growth; assay type: functional, organism-based
Plasmodium falciparum [20] = experiment: Antimalarial activity against Plasmodium falciparum 7G8 assessed as inhibition of parasite growth; assay type: functional, organism-based
Plasmodium falciparum [21] = experiment: Antimalarial activity against Plasmodium falciparum V1/S assessed as inhibition of parasite growth; assay type: functional, organism-based
Plasmodium falciparum [22] = experiment: Antimalarial activity against Plasmodium falciparum 3D7 assessed as inhibition of parasite growth; assay type: functional, organism-based
Plasmodium falciparum [23] = experiment: Antimalarial activity against Plasmodium falciparum K1 assessed as inhibition of parasite growth; assay type: functional, organism-based
Plasmodium falciparum [24] = experiment: Antimalarial activity against Plasmodium falciparum NF54 assessed as inhibition of parasite growth incubated for 72 hrs by DAPI-staining based microscopic analysis; assay type: functional, organism-based; settings: NF54, 72 h
Plasmodium falciparum [25] = experiment: Antimalarial activity against Plasmodium falciparum K1 assessed as inhibition of parasite growth incubated for 72 hrs by DAPI-staining based microscopic analysis; assay type: functional, organism-based; settings: K1, 72 h
Plasmodium falciparum [26] = experiment: Antimalarial activity against chloroquine-resistant Plasmodium falciparum W2 assessed as inhibition of parasite growth by parasite lactate dehydrogenase assay; assay type: functional, organism-based
Plasmodium falciparum [27] = experiment: Antimalarial activity against chloroquine-sensitive Plasmodium falciparum D6 assessed as inhibition of parasite growth by parasite lactate dehydrogenase assay; assay type: functional, organism-based
Plasmodium falciparum [28] = experiment: Antimalarial activity against chloroquine-resistant Plasmodium falciparum K14 infected in human red blood cells assessed as inhibition of parasite growth incubated for 42 hrs by [3H]-hypoxanthine incorporation assay; assay type: functional, organism-based, Red blood cell; settings: K14, Erythrocyte
Plasmodium falciparum [29] = experiment: Antimalarial activity against chloroquine-sensitive Plasmodium falciparum 3D7 infected in human erythrocytes assessed as inhibition of parasite growth incubated for 48 hrs by parasite lactate dehydrogenase based colorimetric assay; assay type: functional, organism-based; settings: 3D7, 48 h
Plasmodium falciparum [30] = experiment: Antimalarial activity against chloroquine-resistant Plasmodium falciparum FCR3 infected in human erythrocytes assessed as inhibition of parasite growth incubated for 48 hrs by [3H]-hypoxanthine incorporation assay; assay type: functional, organism-based
Plasmodium falciparum [31] = experiment: Antimalarial activity against chloroquine-resistant Plasmodium falciparum W2 assessed as inhibition of parasite growth; assay type: functional, organism-based
Plasmodium falciparum [32] = experiment: Antimalarial activity against chloroquine-sensitive Plasmodium falciparum D6 assessed as inhibition of parasite growth; assay type: functional, organism-based

Structure (SMILES): CCOC(=O)C1=C2N=C(c3cccnc3)NN2C2=C(C(=O)CCC2)C12C(=O)Nc1ccccc12 (stereo unspecified)
- IC50 (Plasmodium falciparum [1]): 0.422 µM

Structure (SMILES): C=C(c1ccc(OC(C)(C)COC(=O)CCC(=O)O)cc1)C1OCC2(OO1)C1CC3CC(C1)CC2C3 (stereo unspecified)
- Tmax [2]: 2.2 h
- AUCt [3]: 9100 ng·h/mL
- Vd/F [4]: 7.81 L/kg
- Cmax [5]: 1350 ng/mL
- t1/2 [6]: 9.27 h
- AUC [7]: 9150 ng·h/mL

Structure (SMILES): CC(=O)O[C@@H]1[C@H](C)[C@@H](C)O[C@@]2([C@@H]1C)[C@@H](C)C=C(C)C(=O)[C@@H]2C
- IC50 (Plasmodium falciparum [8]): 16 µM

Structure (SMILES): CC(C)OC(=O)C1=C2N=C(c3cccnc3)NN2C2=C(C(=O)CCC2)C12C(=O)Nc1ccc(F)cc12 (stereo unspecified)
- IC50 (Plasmodium falciparum [1]): 0.454 µM

Structure (SMILES): C=CCN1C(=O)[C@@]2(c3ccccc31)C(c1ccccc1)C=CN1N3C=CC=CC3C(=O)[C@@]12C/C=C/c1ccccc1 (stereo partly specified)
- IC50 (Plasmodium falciparum [9]): 8.3 µM

Structure (SMILES): NCC1CCC2(CC1)OOC1(O2)C2CC3CC(C2)CC1C3 (stereo unspecified)
- IC50 (Plasmodium falciparum [10]): 0.42 ng/mL (≈ 1.43 nM)
- IC50 (Plasmodium falciparum [11]): 0.39 ng/mL (≈ 1.33 nM)

Structure (SMILES): COc1cc2c(cc1O)CCN1CC=C3C=C[C@H](OC)C[C@]321 [ERYSODINE]
- IC50 at 7 days [12]: > 64 µM
- IC50 (Plasmodium falciparum [13]): 6.5 µM

Structure (SMILES): FC1CCN(CCOc2ccc(C3CCC4(CC3)OOC3(OO4)C4CCCC3CCC4)cc2)CC1 (stereo unspecified)
- IC50 (Plasmodium falciparum [14]): 0.0042 µM
- IC50 (Plasmodium falciparum [15]): 0.0085 µM
- IC50 (Plasmodium falciparum [16]): 0.0073 µM
- IC50 (Plasmodium falciparum [17]): 0.0042 µM
- IC50 (Plasmodium falciparum [18]): 0.0077 µM
- IC50 (Plasmodium falciparum [19]): 0.014 µM
- IC50 (Plasmodium falciparum [20]): 0.0029 µM
- IC50 (Plasmodium falciparum [21]): 0.0042 µM
- IC50 (Plasmodium falciparum [22]): 0.0051 µM

Structure (SMILES): COC(=O)C12C=C(OC)[C@@]3(Cl)C(C)(C=C(C4=C[C@H](O)[C@@H]5O[C@]5(CC=C(C)C)[C@@H]4O)[C@@]3(O)C13OC(=O)c1c(O)cc(C)cc1O3)C2 (stereo partly specified)
- IC50 (Plasmodium falciparum [23]): 5.73 µM

Structure (SMILES): O=C1OC[C@H](CN2C3=C4C(=O)c5ccccc5C4C[C@@H]4CO[C@@]3(O4)c3ccccc32)O1 (stereo partly specified)
- IC50 (Plasmodium falciparum [24]): 0.009 µM
- IC50 (Plasmodium falciparum [25]): 0.009 µM

Structure (SMILES): CC(C)OC(=O)C1=C2N=C(c3ccncc3)NN2C2=C(C(=O)CCC2)C12C(=O)Nc1ccccc12 (stereo unspecified)
- IC50 (Plasmodium falciparum [1]): 0.246 µM

Structure (SMILES): Cc1ccc(C2OOC3(CCN(S(=O)(=O)c4ccccc4)CC3)OO2)cc1
- IC50 (Plasmodium falciparum [26]): > 0.2 µM
- IC50 (Plasmodium falciparum [27]): 0.3 µM

Structure (SMILES): CC(C)(N)CNC(=O)C(=O)OC1CCCC2(C1)OOC1(O2)C2CC3CC(C2)CC1C3 (stereo unspecified)
- IC50 (Plasmodium falciparum [10]): 0.91 ng/mL (≈ 2.15 nM)
- IC50 (Plasmodium falciparum [11]): 1 ng/mL (≈ 2.37 nM)

Structure (SMILES): CCN(CC)c1ccc(N2C(=O)C(Oc3ccccc3)C23c2ccccc2-c2ccccc23)cc1 (stereo unspecified)
- IC50 (Plasmodium falciparum [28]): 6.4 µM

Structure (SMILES): COc1cc([C@@H]2c3cc(Br)ccc3NC3(C(=O)Nc4ccccc43)[C@H]2C)ccc1O (stereo partly specified)
- IC50 (Plasmodium falciparum [29]): 1.31 µM
- IC50 (Plasmodium falciparum [30]): 1.52 µM

Structure (SMILES): CO[C@H]1C=CC2=CCN3CCc4cc5c(cc4[C@]23C1)OCO5 [ERYTHRALINE]
- IC50 at 7 days [12]: > 64 µM
- IC50 (Plasmodium falciparum [13]): 7.3 µM

Structure (SMILES): COc1cc([C@@H]2c3cc(Cl)ccc3NC3(C(=O)Nc4ccccc43)[C@H]2C)ccc1O (stereo partly specified)
- IC50 (Plasmodium falciparum [29]): 1.8 µM
- IC50 (Plasmodium falciparum [30]): 1.67 µM

Structure (SMILES): C=CCOc1c2n(c3ccccc13)C=CC[C@@]21C(=O)c2ccccc2N1CC=C
- IC50 (Plasmodium falciparum [24]): ≥ 5 µM
- IC50 (Plasmodium falciparum [25]): ≥ 5 µM

Structure (SMILES): CC(=O)O[C@H]1C[C@H]2[C@@H]([C@H](OC(C)=O)C[C@@H]3CC4(CC[C@@]32C)OOC2(CCC(C)CC2)OO4)[C@@H]2CC[C@H]([C@H](C)CCC(N)=O)[C@@]12C (stereo partly specified)
- IC50 (Plasmodium falciparum [31]): 0.00058 µM
- IC50 (Plasmodium falciparum [32]): 0.00117 µM

Structure (SMILES): C1CCCCCC2(CCCCC1)OOCCCOO2
- EC50 (Plasmodium falciparum [18]): 0.897 µM
- EC50 (Plasmodium falciparum [22]): 0.268 µM

Structure (SMILES): O=C(O)CC1CCC2(CC1)OOC1(O2)C2CC3CC(C2)CC1C3 (stereo unspecified)
- IC50 (Plasmodium falciparum [10]): 45 ng/mL (≈ 140 nM)
- IC50 (Plasmodium falciparum [11]): 34 ng/mL (≈ 105 nM)
